Assay results taken from patent US8362031B2, “Lonidamine analogues and treatment of polycystic kidney disease” (University of Kansas, priority 2004, dated 2013).

Experiments:
[1] = test system: S. typhimurium TA100; assay: Colormetric Ames Test Procedure; type: cell-based; conditions: at the concentration given per compound (1.39-360.1 μM), 5 days at 37° C.
Protocol: The following procedures were performed aseptically. First, the day before the assay, as late as possible in the day, the vial labeled “G” Nutrient Broth was dispensed into the vial labeled S. typhimurium TA100 (lyophilized). The mixture was incubated over night at 37° C. for about 16-18 hours.
In appropriate vial, about 50 mg of the test compound was weighed out. About 1 mL of DMSO was added, and the mixture was filter sterilized with 25 mm syringe filter into a sterile tube. The concentration of DMSO was noted.
In a sterile 50 mL tube, about 15 mL of sterile Davis Mingioli Salt (see Davis & Mingioli, Aromatic biosynthesis, VII. Accumulation of two derivatives of shikimic acid by bacterial mutants, J. Bacteriol. 1953. August; 66(2): 129-36) was pipetted. This salt solution (Muta Component “A”) was comprised of (1) Milli-Q, 600 mL; (2) dipotassium phosphate, anhyd., 38.5 g; (3) monopotassium phosphate, anhyd. 11.0 g; (4) ammonium sulfate, 5.5 g; (5) trisodium citrate, 1.375 g; and (6) magnesium sulfate, 0.55 g. Appropriate volume of Milli-Q water was added to bring total volume to 1 L. Each component was dissolved one at a time in the above order. The solution was filtered through a 0.22 μm filter to remove sediment at a pH of about 7.3.
To the salt solution, small amounts of DMSO diluted compound was added, not to exceed 500 μl of DMSO. For example, about 100 μl aliquots of the DMSO diluted compound was added until the highest concentration is reached with compound still in solution. […] When the highest concentration of compound was determined, an appropriate volume of sterile Davis Mingioli salts was added to bring the total volume of solution to 17.5 mL. The concentration of compound and DMSO in the test solution was then noted.
The components were then mixed in a 50 mL sterile tube labeled Reaction Mixture as follows: 21.62 mL of A+4.75 ml of B (D-glucose, 40% w/v)+2.38 mL of C (bromocresol purple, 5 mg/ml)+1.19 ml of D (D-biotin, 0.1 mg/ml)+0.060 ml (60 μl) of E (L-histidine, 0.1 mg/ml). The vial was vortexed and then set aside.
The S9 Mixture was prepared by reconstituting the S9 enzymes with 2.1 mL of sterile water. This was labeled “S9F.” In a 50 mL tube labeled S9 Mixture, the following were mixed together (all available from EBIP): 0.4 mL of S9A (MgCl2, 0.4 M and KCl, 1.65 M)+0.09 mL of S9B (glucose-6-phosphate, 1.0 M)+0.81 mL of S9C (nicotine amide di-nucleotide phosphate, 0.1 M)+9.98 mL of S9D (phosphate buffer, pH 7.4)+6.72 mL of S9E (sterile distilled water)+2 mL of S9F (Rate liver extract). The vial was vortexed and then set aside.
Sterile tubes were labeled as follows: Blank, Background I, Background II, Standard Mutagen, Compound 1 (−), Compound 1 (S9+), Compound 2 (−), Compound 2 (S9+), Compound 3 (−), Compound 3 (S9+). Next, about 2.5 mL of the reaction mix was added to each tube. Then, about 2 mL of the S9 mix was added to the Background II and the S9+ compounds. Next, to each of the compound vials, about 8 mL of the prepared compounds was added. The concentration of the compound in the final solution was noted. Then, about 100 μl of the standard mutagen was added to the Standard mutagen vial. (NaN3 for non S9 activation and 2-aminoanthracene with S9 activation). The appropriate volume of sterile water was next added for a final volume of 17.5 mL. Then, about 5 μl of bacteria was added to each tube except the Blank. Each vial was vortexed and poured into a sterile multi-channel pipette boat, and pipette 200 μl per well into the 96 well plate with a multi channel pipetter. The plates were labeled, covered, placed in zip lock bag, and then incubated for 5 days at 37° C.
On day five of the incubation, the plates were removed from the incubator and placed in a laminar flow hood. The Blank was analyzed first. If there were any wells that were yellow, the test was considered contaminated and the results invalid. […]

[2] = test system: M-1 Clone 20; human primary cyst epithelial cells (ADPKD cells); assay: MTT cell proliferation assay with cAMP (FIGS. 9A-9B); type: cell-based; conditions: 48 hours
Protocol: Various compounds were tested for their effects on cell proliferation. In the study, the cell types were M-1 Clone 20, which is an immortalized cell line that mimics PKD, and human primary cyst epithelial cells, or ADPKD cells. The compounds were tested at 1 μM to 100 μM concentrations.
M-1 clone 20 (“M1 Clone 20”) cells are a model of PKD-like cells, which were created by stably transfecting parental “normal” M-1 immortalized renal cortical collecting duct cells with the C-terminal cytosolic domain (or C-tail) of mouse polycystin-1 (the protein product of the Pkd1 gene. The overexpressed C-tail acts in a dominant-negative fashion, conferring the PKD phenotype to these cells. Their characterization is described in: Sutters, M., Yamaguchi, T., Maser, R. L., Magenheimer, B. S., St. John, P. L., Abrahamson, D. R., Grantham, J. J. and Calvet, J. P. (2001) Polycystin-1 transforms the cAMP growth-responsive phenotype of M-1 cells. Kidney Int. 60, 484-494.
FIGS. 9A-9B include graphs that show cells grown in the vehicle (i.e. DMSO at two different volumes of 1 uL and 5 uL respectively), cAMP only, and then under the treatment drugs, all of which also had cAMP in them. The comparison drug used was 10 uM of gamendazole. […] Absorbance is a measure of cell number.
The comparison drug used was 10 uM Gamendazole. The MTT cell proliferation assay was carried out to assess cell number—cell proliferation is essentially cell number. […] Thus, absorbance is a measure of cell number, or cell proliferation. The reference bar is the third bar from the left (cAMP)—the degree of inhibition should be compared to that bar.

[3] = test system: Salmonella Typhimurium TA 100; assay: Ames test for mutagenicity (plate assay, colony count); conditions: 48 hours at 37° C.; for Ames test (+)S9 0.1 mg/pl. / Ames test (+)S9 1 mg/pl. / Ames test (+)S9 10 mg/pl.: (+)S9 mix; for Ames test (−)S9 0.1 mg/pl. / Ames test (−)S9 1 mg/pl. / Ames test (−)S9 10 mg/pl.: (−)S9 mix
[4] = test system: Male Long Evans rats; assay: In vivo antispermatogenic testing in Long Evans rats; conditions: for Mortality (25 mg/kg) / Response 25 mg/kg: 25 mg/kg single i.p. injection; for Response 25 mg/kg / Response 200 mg/kg: animals responding out of animals surviving, five days following injection; for Mortality (200 mg/kg) / Response 200 mg/kg: 200 mg/kg single i.p. injection

Compound	Colormetric Ames test, with S9 [1]	Colormetric Ames test, without S9 [1]	Inhibition of cell proliferation (MTT absorbance) ([2]; 25 uM)	Ames test (+)S9 0.1 mg/pl. [3]	Ames test (+)S9 1 mg/pl. [3]	Ames test (+)S9 10 mg/pl. [3]	Ames test (−)S9 0.1 mg/pl. [3]	Ames test (−)S9 1 mg/pl. [3]	Ames test (−)S9 10 mg/pl. [3]	also measured
O=C(O)c1nn(Cc2ccc(Cl)cc2Cl)c2cc(OC(F)(F)F)ccc12 [JWS-2-102, 1-(2,4-dichlorobenzyl)-6-trifluoromethoxy-1H-indazole-3-carboxylic acid]	Pass*	Pass*								
Cc1ccc2c(C(=O)O)nn(Cc3ccc(Cl)cc3Cl)c2c1 [TH-2-178, 1-(2,4-dichlorobenzyl)-6-methyl-1H-indazole-3-carboxylic acid]			more effective in inhibition of cell proliferation at 25 uM compared to 10 uM	Pass	Pass	Pass	Pass	Pass	Pass	Mortality (25 mg/kg) [4]: 0/5; Response 25 mg/kg [4]: 0/5; Mortality (200 mg/kg) [4]: 0/5; Response 200 mg/kg [4]: 4/5
NNC(=O)c1nn(Cc2ccc(F)cc2F)c2cc(Cl)ccc12 [JWS-1-282, 1-(2,4-difluorobenzyl)-6-chloro-1H-indazole-3-carboxylic acid hydrazide]			quite effective in inhibiting cell proliferation	Pass	Pass	Fail	Pass	Pass	Pass	
Cc1ccc2c(/C=C/C(=O)O)nn(Cc3ccc(Cl)cc3Cl)c2c1 [TH-2-192, 3-[1-(2,4-dichlorobenzyl)-6-methyl-1H-indazol-3-yl]acrylic acid]			more effective in inhibition of cell proliferation at 25 uM compared to 10 uM	Pass	Pass	Pass	Pass	Pass	Pass	Mortality (25 mg/kg) [4]: 0/5; Response 25 mg/kg [4]: 0/5; Mortality (200 mg/kg) [4]: 4/5; Response 200 mg/kg [4]: 0/4
O=C(O)/C=C/c1nn(Cc2ccc(Cl)cc2Cl)c2cc(OC(F)(F)F)ccc12 [JWS-2-112, 3-[1-(2,4-dichlorobenzyl)-6-trifluoromethoxy-1H-indazol-3-yl]acrylic acid]	Pass*	Pass*								
Cc1ccc2c(C(=O)NN)nn(Cc3ccc(Cl)cc3Cl)c2c1 [TH-2-179, 1-(2,4-dichlorobenzyl)-6-methyl-1H-indazole-3-carboxylic acid hydrazide]			more effective in inhibition of cell proliferation at 25 uM compared to 10 uM	Pass	Pass	Pass	Pass	Pass	Pass	Inhibition of cell proliferation (MTT absorbance) ([2]; 10 uM): more effective at 10 uM; Mortality (25 mg/kg) [4]: 0/5; Response 25 mg/kg [4]: 2/5; Mortality (200 mg/kg) [4]: 0/5; Response 200 mg/kg [4]: 5/5
COc1ccc2c(/C=C/C(=O)O)nn(Cc3ccc(Cl)cc3Cl)c2c1 [JWS-2-132, 3-[1-(2,4-dichlorobenzyl)-6-methoxy-1H-indazol-3-yl]acrylic acid]	Pass*	Pass*								
COC(=O)/C=C/c1nn(Cc2ccc(Cl)cc2Cl)c2cc(OC(F)(F)F)ccc12 [JWS-2-110, 3-[1-(2,4-dichlorobenzyl)-6-trifluoromethoxy-1H-indazol-3-yl]acrylic acid methyl ester]	Pass*	Pass*								
COC(=O)c1nn(Cc2ccc(Cl)cc2Cl)c2cccc(C)c12 [JWS-2-92, 1-(2,4-dichlorobenzyl)-4-methyl-1H-indazole-3-carboxylic acid methyl ester]	Pass*	Pass*								
NNC(=O)c1nn(Cc2ccc(F)cc2Cl)c2cc(Cl)ccc12 [JWS-2-22, 1-(2-chloro, 4-fluorobenzyl)-6-chloro-1H-indazole-3-carboxylic acid hydrazide]			quite effective in inhibiting cell proliferation	Pass	Pass	Pass	Pass	Pass	Pass	
NNC(=O)c1nn(Cc2ccc(Cl)cc2Cl)c2cc(OC(F)(F)F)ccc12 [JWS-2-104, 1-(2,4-dichlorobenzyl)-6-trifluoromethoxy-1H-indazole-3-carboxylic acid hydrazide]	Pass*	Pass*								
COc1ccc2c(C(=O)O)nn(Cc3ccc(Cl)cc3Cl)c2c1 [JWS-2-122, 1-(2,4-dichlorobenzyl)-6-methoxy-1H-indazole-3-carboxylic acid]	Pass*	Pass*								
COC(=O)c1nn(Cc2ccc(Cl)cc2Cl)c2cc(OC)ccc12 [JWS-2-120, 1-(2,4-dichlorobenzyl)-6-methoxy-1H-indazole-3-carboxylic acid methyl ester]	Pass*	Pass*								
COC(=O)c1nn(Cc2ccc(Cl)cc2Cl)c2cc(OC(F)(F)F)ccc12 [JWS-2-100, 1-(2,4-dichlorobenzyl)-6-trifluoromethoxy-1H-indazole-3-carboxylic acid methyl ester]	Pass*	Pass*								
